According to ChEMBL document CHEMBL3822389, “New insights into 3-(aminomethyl)naphthoquinones: Evaluation of cytotoxicity, electrochemical behavior and search for structure-activity correlation” (Bioorg Med Chem Lett, 2016):

What was measured:
MDA-MB-435 = assay: Cytotoxicity against human MDA-MB-435 cells after 72 hrs by MTT assay; assay type: functional, cell-based
[1] = Cytotoxicity against human HCT8 cells after 72 hrs by MTT assay; assay type: functional, cell-based, HCT-8
[2] = Cytotoxicity against human SF295 cells after 72 hrs by MTT assay; assay type: functional, cell-based, SF-295
[3] = Cytotoxicity against human HL60 cells after 72 hrs by MTT assay; assay type: functional, cell-based, HL-60; conditions: Homo sapiens, HL-60, 72 h

Structure (SMILES)	IC50 (MDA-MB-435; Homo sapiens, MDA-MB-435, 72 h) [µM]	IC50 ([1]; Homo sapiens, HCT-8, 72 h) [µM]	IC50 ([2]; Homo sapiens, SF-295, 72 h) [µM]	IC50 [3] [µM]	IC50 (MDA-MB-435; mda-mb-435) [µM]	IC50 ([1]; hct-8) [µM]	IC50 ([2]; sf-295) [µM]
CC(C)(C)OC(=O)NCCNC(C1=C(O)C(=O)c2ccccc2C1=O)c1ccccc1 (stereo unspecified)	> 40	> 40	> 40	> 40			
CCCCNC(C1=C(O)C(=O)c2ccccc2C1=O)c1ccc([N+](=O)[O-])cc1 (stereo unspecified)	> 40	> 40					
CCCCNC(C1=C(O)C(=O)c2ccccc2C1=O)c1cccc(O)c1 (stereo unspecified)	> 40	> 40	> 40	> 40			
CC(C)(C)OC(=O)NCCCNC(C1=C(O)C(=O)c2ccccc2C1=O)c1ccccc1O (stereo unspecified)	37.8	22.7	26	17.2			
COc1ccc(NC(C2=C(O)C(=O)c3ccccc3C2=O)c2ccccn2)cc1 (stereo unspecified)	> 40	> 40	> 40	> 40			
Cc1ccc(O)c(C(NCc2ccccc2)C2=C(O)C(=O)c3ccccc3C2=O)c1 (stereo unspecified)			8.5	7.2	15.8	11.3	
O=C1C(O)=C(C(NCc2ccccc2)c2ccc([N+](=O)[O-])cc2)C(=O)c2ccccc21 (stereo unspecified) [listing 1 of 2 here]			> 40	> 40			
O=C1C(O)=C(C(NCc2ccco2)c2ccccc2O)C(=O)c2ccccc21 (stereo unspecified)				1.1	20.2	14.4	23.4
CCCCCCCNC(C1=C(O)C(=O)c2ccccc2C1=O)c1ccc([N+](=O)[O-])cc1 (stereo unspecified)	> 40	> 40	> 40	> 40			
CC(C)(C)OC(=O)NCCCNC(C1=C(O)C(=O)c2ccccc2C1=O)c1ccc(Cl)cc1Cl (stereo unspecified)	16.2	21.2	> 40				
CC(C)(C)OC(=O)NCCNC(C1=C(O)C(=O)c2ccccc2C1=O)c1cccc(O)c1 (stereo unspecified)	> 40	> 40	> 40	> 40			
CC(C)(C)OC(=O)NCCCNCC1=C(O)C(=O)c2ccccc2C1=O	> 40	> 40	> 40	> 40			
CC(C)(C)OC(=O)NCCNC(C1=C(O)C(=O)c2ccccc2C1=O)c1ccc([N+](=O)[O-])cc1 (stereo unspecified)	> 40	> 40	> 40	> 40			
O=C1C(O)=C(C(NCc2ccccc2)c2ccc([N+](=O)[O-])cc2)C(=O)c2ccccc21 (stereo unspecified) [listing 2 of 2 here]	> 40	> 40					
COc1cccc2c1C(=O)c1c(O)c3c(c(O)c1C2=O)C[C@@](O)(C(=O)CO)C[C@@H]3O[C@H]1C[C@H](N)[C@H](O)[C@H](C)O1 [DOXORUBICIN]			0.39	0.03			
